Measured values published in US20080171893A1, “Isotopically labeled alpha-keto acids and esters” (Spectra Gases, Inc., priority 2006, published 2008).

How the values were obtained:
[1] = Shelf storage stability of [1-^13C]pyruvic acid in water, by ^1H and ^13C NMR; assay type: physicochemical; settings: 0.025M in water
Procedure: Samples of isotopically labeled [1-^13C]pyruvic acid, having Formula VI and synthesized as discussed immediately below, were subjected to various conditions as depicted in Table 1, in order to establish the compound's shelf storage stability.
The resulting [1-^13C]pyruvic acid was tested as follows in Table 1:
^1H and ^13C NMR spectra of the distilled [1-^13C]pyruvic acid in water (0.025M) were acquired at the onset of the study and prior to exposing the samples to the various conditions specified in Table 1. ^1H and ^13C NMR spectra were again acquired for each of the samples after being exposed to the aforementioned conditions on a weekly basis for 12-weeks. The spectra acquired after exposure were compared visually and appeared to remain unchanged as compared with the spectra acquired prior to exposure, i.e. the spectra were as expected for [1-^13C]pyruvic acid in water. As such, it was concluded that each of the samples were shelf stable. Similarly, ^1H and ^13C NMR spectra acquired after 17-weeks of exposure remained unchanged as compared with the spectra acquired prior to exposure.

[2] = Titration of aqueous sample 4 with sodium hydroxide, composition by HPLC; assay type: physicochemical; settings: sample 4 titrated with sodium hydroxide to pH of about 6.2
From the text: The molarity of sample 4 was confirmed to be 0.025M by titrating the aqueous sample with sodium hydroxide. […] It was also discovered that at pHs greater than 5.8, such as at a pH of about 6.2, some of the pyruvic acid was present in the form of a dimerized sodium salt. […] As such, it was discovered that to minimize dimmer formation, it may be necessary to control the pH of [1-^13C]pyruvate solutions, and in particular, any aqueous solution should be maintained at a pH of about 6.5 or less, more preferably 6.0 or less, and even more preferably 5.8 or less.

[3] = Concentration study: stability of pyruvic acid solutions in water at higher concentrations; assay type: physicochemical; set-up: unit not given here; settings: light, about 22° C. to about 26° C.
Procedure: Each of these commercial solutions were subjected to light for 6-weeks at temperatures ranging from about 22° C. to about 26° C. At each of the concentrations listed below, it was discovered that the pyruvic acid solutions were stable.

[4] = background statement; cited from earlier work
[5] = Sample 1: −10° C., dark, NMR spectra unchanged
[6] = Sample 3: room temperature (about 22° C. to about 26° C.), dark
[7] = Sample 4: room temperature (about 22° C. to about 26° C.), light

CC(=O)[13C](=O)O [[1-^13C]pyruvic acid]
Shelf stability, 12 weeks [1, 5]: Stable
Shelf stability, 17 weeks [1, 5]: Stable
Shelf stability, 12 weeks ([1]; Sample 2: 4° C., dark): Stable
Shelf stability, 17 weeks ([1]; Sample 2: 4° C., dark): Stable
Shelf stability, 12 weeks [1, 6]: Stable
Shelf stability, 17 weeks [1, 6]: Stable
Shelf stability, 12 weeks [1, 7]: Stable
Shelf stability, 17 weeks [1, 7]: Stable
Content of dimerized [1-^13C]pyruvate salt by HPLC [2]: 2-4%
Content of sodium [1-^13C]pyruvate by HPLC [2]: 89%
Share of the pyruvic acid accounted for by the dimerized salt [2]: 4-6%

CC(=O)C(=O)O [Formula VIB, 2-oxopropanoic acid]
Stability after 6-weeks ([3]; concentration 2.3 in water): Stable
Stability after 6-weeks ([3]; concentration 2.8 in water): Stable
Stability after 6-weeks ([3]; concentration 3.8 in water): Stable
Stability after 6-weeks ([3]; concentration 5.7 in water): Stable
Stability after 6-weeks ([3]; concentration 11.3 in water): Stable
Solubility in water [4]: soluble in water
